In patent US20060167098A1, “Method for the treatment of diseases linked to an accumulation of triglycerides and cholesterol” (Institut National De La Sante ET De LA Recherche Medicale …, priority 2003, published 2006):

Legend:
Type in all cases: in vivo
[1] = Body fat mass by DEXA in genetically obese ob/ob mice; conditions: 100 mg/kg/day
Excerpt: Six to 8 weeks old male (Crl:CD-1(ICR)BR) Swiss mice, and six to ten weeks old male RjOrl Swiss mice (i.e. lean mice) weighing 28 and 32 grams were purchased from Dépré (Saint Doulchard, France). Ten to 12 weeks old ob/ob male (C57BL/6-ob) mice (i.e. obese mice), weighing 40 to 44 grams were purchased from Janvier (Le-Genest-St-Isle, France). In one experiment, younger ob/ob mice (5-6 weeks old) weighing 25-26 grams were also studied. In genetically obese ob/ob mice, a mutation on the gene of leptin prevents the normal production of this hormone, thus increasing appetite and decreasing energy consumption (Friedman J. M., Halaas J. L., 1998, Nature 395 : 763-770). […] The animals were acclimatized for one to two weeks before the start of experiments.
D,L-β-Aminoisobutyric acid (BAIBA) was purchased from Sigma-Aldrich. BAIBA has been administered in drinking water at the dose of 100 mg/kg/day or 500 mg/kg/day for 6 weeks, 2 months or 4 months according to the experiments.
The in vivo determination of body fat mass in anesthetized mice has been performed by “DEXA” (Dual Energy X-ray Absorptiometry) (Pietriobelli A., Formica C., Wang Z., Heymsfield S. B., 1996, Am. J. Physiol. 271 (Endocrinol. Metab. 34): E941-E951)). […] It is noteworthy that DEXA also gives for each investigated animal its lean mass that is the total amount of water and proteins (in grams) in the body (excluding the head). Therefore, for a given animal, DEXA allows the determination of the percentage of body fat which is its body fat mass divided by the sum of its body lean and fat masses (fat mass/(lean mass+fat mass)). The “DEXA” apparatus was a Piximus® from Lunar Corporation (Madison, Wis.). Mice were anesthetized thanks to a mixture of xylazine and ketamine.
Procedure 1: the animals were not fasted before DEXA investigations. The first DEXA measurement was performed one day before the beginning of the investigation (T0). Afterwards, DEXA measurements have been respectively performed two weeks (T2) and six weeks (T6) after the beginning of the treatment. […]

[2] = Liver lipids in Swiss mice fed with a western diet; conditions: 100 mg/kg/day, western diet 6 weeks, fasted 48 h
Experimental: Total lipids and triglycerides in the liver of animals were assessed according to a procedure partially reported by (Letteron P., Fromenty B., Terris B., Degott C., Pessayre D., 1996, J. Hepatol. 24 : 200-208). Briefly, after killing of the animals, livers were removed and homogenized in sterile water. Hepatic lipids were thus extracted by a mixture of chloroform and methanol (2/1; v/v). After removal of the aqueous phase, the organic phase (chloroform containing the lipids) was evaporated and the amount of lipids was determined by gravimetry. Lipids were subsequently resuspended in isopropanol (final concentration, ca. 10 mg/mL). After removal of the phopholipids by using aluminum hydroxide hydrate, triglycerides were determined colorimetrically by using periodate and the Nash's reagent (containing acetylacetone, ammonium acetate and isopropanol). The reaction generates diacetyldihydrolutidine which is assayed by spectrophotometry (λ=410 nm).
Liver lipids were assessed in mice fed with the western diet (WD) receiving or not of 100 mg/kg/day of β-aminoisobutyric acid (BAIBA) in the drinking water (8 mice in each group). For comparison, the experiment also included a group of mice (n=8) fed with a standard diet (SD). These animals were those used for the determination of body fat by DEXA (see above, paragraph I-c) but after the last DEXA measurement (i.e. after 6 weeks of treatment), mice were allowed to recover from the anaesthesia for ca. 2 days and were then submitted to a 48-hour period of fast. At the end of this fasting period DEXA was again performed (see above) and then mice were killed for liver lipids determination. The western diet was responsible for an increase in liver lipids as compared to mice fed with the standard diet.

[3] = Liver histology in ob/ob mice, first series (48-hr fast); conditions: standard diet
Experimental: Plasma HDL-cholesterol and alanine aminotransferase (ALT) were measured on an automatic analyser (Olympus AU400®) with commercial kits (Olympus Diagnostica GmbH, references OSR6187 and OSR6107, respectively).
Finally, liver histology was performed according to regular procedure. Steatosis and fibrosis were assessed thanks to the Oil red O and Masson's trichrome stains, respectively, whereas necrosis and inflammation were determined thanks to the HPS (Hematoxylin-Phloxin-Saffron) stain, or the HE (Hematoxylin-Eosin) stain. In one experiment, perisinusoidal fibrosis was assessed with the Sirius Red stain.
Liver histology was first examined in ob/ob mice fed with standard diet receiving (11 mice) or not (10 mice) β-aminoisobutyric acid in the drinking water. In this experiment, mice were submitted to a 48-hr period of fast before killing and liver examination.

[4] = Plasma glucose in lean mice, standard diet, 6 weeks, not fasted; conditions: 100 mg/kg/day 6 weeks
Experimental: Plasma glucose was measured on an automatic analyser (Synchron LX20 from Beckman Coulter) with a commercial kit (kit n°472500 from Beckman).
In a second series of experiments plasma glucose was assessed in lean mice fed with the standard diet and receiving (6 mice) or not (6 mice) 100 mg/kg/day of β-aminoisobutyric acid in the drinking water for 6 weeks, but at the end of the experiment, mice were not fasted. […] Indeed, plasma glucose was 11.5±0.8 and 10.7±0.4 mmol/L, respectively in control and treated mice.

CC(CN)C(=O)O (racemic) [BAIBA, D,L-β-Aminoisobutyric acid]
gain of body fat ([1]; 10-12 weeks old ob/ob mice, first two weeks): 4.65±0.35 grams
reduction of body fat ([1]; 10-12 weeks old ob/ob mice, first two weeks, not significant): 11%
gain of body fat ([1]; ob/ob mice, T0-T6): 7.30±0.61 grams
hepatic triglycerides [2]: 33±6 mg/whole liver
liver lipids [2]: 108±7 mg/whole liver
decrease of liver total lipids ([2]; vs Controls-WD): 24%
decrease of liver triglycerides ([2]; vs Controls-WD): 17%
animals with inflammation [3]: 63%
animals with necrosis [3]: 63%
animals with perisinusoidal fibrosis [3]: 45%
plasma alanine aminotransferase [3]: not decreased
mice with between 90 and 100% of fat-laden hepatocytes ([3]; 11 treated mice): 27%
plasma glucose [4]: 10.7 ± 0.4 mmol/L
